# Earlier results in PubChem BioAssay AID1259409 (Chemical Carcinogenesis Research Information System (CCRIS), 2018).
# Test system: rodent chemically induced tumor inhibition, incidence and multiplicity
# Assay: CCRIS tumor inhibitor studies
smiles,measurement,setting,value
NC(N)=S,outcome,"Carcinogen: N-BIS-(2-HYDROXYPROPYL)NITROSAMINE [53609-64-6], Dose [Inhibitor]: 0, 0.2% IN DIET 4 WK BEGINNING 1 WK POST CARCINOGEN DOSE (STUDY DURATION: 5 WK), Route [Inhibitor]: ORAL, Species: RAT, Strain/Sex: F344/DUCRJ/MALE, Target Tissue: Type of Lesion: THYROID GLAND: ADENOMATOUS GROWTH PATTERN, Dose [Carcinogen]: 2800 MG/KG BW ONCE (STUDY DURATION: 5 WK), Promoter: NONE","0%, 30%, -100%, not significant"
C=C1C[C@H]2[C@@H]3C=C(C)C4=CC(=O)CC[C@]4(C)[C@H]3CC[C@]2(C)[C@@]1(OC(C)=O)C(C)=O,"tumour outcome (control, treated, inhibition, significance)","Carcinogen: NONE USED, Dose [Inhibitor]: 0, 0.1 MG/D IN DIET FOR THE DURATION OF STUDY (STUDY DURATION: LIFESPAN), Route [Inhibitor]: ORAL, Species: RAT, Strain/Sex: BDII/FEMALE, Target Tissue: Type of Lesion: UTERUS: ENDOMETRIAL CARCINOMA, Promoter: NONE USED","17/20 (85%), 0/20 (0%), 100%, not calculated"
same,"tumour outcome (control, treated, inhibition, significance)","Carcinogen: NONE USED, Dose [Inhibitor]: 0, 0.2 MG/D IN DIET FOR THE DURATION OF STUDY (STUDY DURATION: LIFESPAN), Route [Inhibitor]: ORAL, Species: RAT, Strain/Sex: BDII/FEMALE, Target Tissue: Type of Lesion: UTERUS: ENDOMETRIAL CARCINOMA, Promoter: NONE USED","17/20 (85%), 0/19 (0%), 100%, not calculated"
same,"tumour outcome (control, treated, inhibition, significance)","Carcinogen: NONE USED, Dose [Inhibitor]: 0, 0.4 MG/D IN DIET FOR THE DURATION OF STUDY (STUDY DURATION: LIFESPAN), Route [Inhibitor]: ORAL, Species: RAT, Strain/Sex: BDII/FEMALE, Target Tissue: Type of Lesion: UTERUS: ENDOMETRIAL CARCINOMA, Promoter: NONE USED","17/20 (85%), 0/17 (0%), 100%, not calculated"
Cc1c(C)c2c(c(C)c1O)CCC(C)(CCCC(C)CCCC(C)CCCC(C)C)O2 (centres undefined),"tumour outcome (control, treated, inhibition, significance)","Carcinogen: N-NITROSOMETHYLBENZYLAMINE, 937-40-6, Dose [Inhibitor]: 30, 172 MG/KG IN DIET BEGINNING POST CARCINOGEN TREATMENT AND CONTINUING FOR 22 WK (STUDY DURATION: 25 WK), Route [Inhibitor]: ORAL, Species: MOUSE, Strain/Sex: C57BL/FEMALE, Target Tissue: Type of Lesion: ESOPHAGUS: TUMOR, Dose [Carcinogen]: 0.2 MG/KG IN CORN OIL 3/WK FOR 3 WK, Promoter: ETHANOL, 64-17-5","10/17 (59%), 6/16 (38%), 36%, not calculated"
same,"tumour outcome (control, treated, inhibition, significance)","Carcinogen: N-NITROSOMETHYLBENZYLAMINE, 937-40-6, Dose [Inhibitor]: 30, 172 MG/KG IN DIET BEGINNING POST CARCINOGEN TREATMENT AND CONTINUING FOR 22 WK (STUDY DURATION: 25 WK), Route [Inhibitor]: ORAL, Species: MOUSE, Strain/Sex: C57BL/FEMALE, Target Tissue: Type of Lesion: ESOPHAGUS: TUMOR, Dose [Carcinogen]: 0.2 MG/KG IN CORN OIL 3/WK FOR 3 WK, Promoter: NONE USED","6/15 (40%), 3/15 (20%), 50%, not calculated"
same,"tumour outcome (control, treated, inhibition, significance)","Carcinogen: UVB IRRADIATION, Dose [Inhibitor]: 0, 25 MG IN 200 µL ACETONE 3/WK FOR DURATION OF STUDY BEGINNING 3 WK PRIOR TO IRRADIATION (STUDY DURATION: 33 WK), Route [Inhibitor]: DERMAL, Species: MOUSE, Strain/Sex: C3H/HEN/FEMALE, Target Tissue: Type of Lesion: SKIN: TUMOR, Dose [Carcinogen]: 6 J/M2/SEC 30 MIN/D, 5 D/WK FOR 27 WK, Promoter: NONE USED","81%, 42%, 48%, p=0.0065"
C=C(C)C1CC=C(C)C(O)C1 (centres undefined),"tumour outcome (control, treated, inhibition, significance)","Carcinogen: 7,12-DIMETHYLBENZ[A]ANTHRACENE, 57-97-6, Dose [Inhibitor]: 0, 1% IN DIET FOR 3 WK BEGINNING 2 WK PRIOR TO CARCINOGEN DOSE (STUDY DURATION: 20 WK), Route [Inhibitor]: ORAL, Species: RAT, Strain/Sex: WISTAR/FEMALE, Target Tissue: Type of Lesion: MAMMARY GLAND: CARCINOMA, Dose [Carcinogen]: 50 MG/KG IN SESAME OIL ONCE, Promoter: NONE USED","98%, 92%, 6%, not significant"
CCOC(=O)C(C)(C)Br,"tumour outcome (control, treated, inhibition, significance)","Carcinogen: N-METHYL-N'-NITRO-N-NITROSOGUANIDINE, 70-25-7, Dose [Inhibitor]: 0, 42 MG/KG TWICE WITHIN 24 HR THEN 105 MG/KG 1/2 WK FOR DURATION OF STUDY BEGINNING 1 WK POST LAST CARCINOGEN DOSE (STU, Route [Inhibitor]: INTRAPERITONEAL, Species: RAT, Strain/Sex: SHR/MALE, Target Tissue: Type of Lesion: STOMACH: ADENOCARCINOMA, Dose [Carcinogen]: 25 UG/ML IN DRINKING WATER FOR 25 WK, Promoter: NONE USED","10/19 (53%), 2/17 (12%), 77%, p<0.05"
same,"tumour outcome (control, treated, inhibition, significance)","Carcinogen: N-METHYL-N'-NITRO-N-NITROSOGUANIDINE, 70-25-7, Dose [Inhibitor]: 0, 42 MG/KG TWICE WITHIN 24 HR THEN 105 MG/KG 1/2 WK FOR DURATION OF STUDY BEGINNING 1 WK POST LAST CARCINOGEN DOSE (STU, Route [Inhibitor]: INTRAPERITONEAL, Species: RAT, Strain/Sex: WISTAR/MALE, Target Tissue: Type of Lesion: STOMACH: ADENOCARCINOMA, Dose [Carcinogen]: 25 UG/ML IN DRINKING WATER FOR 25 WK, Promoter: NONE USED","2/18 (11%), 0/17 (0%), 100%, not significant"
CC1=CCC(O)(C(C)C)CC1 (centres undefined),outcome,"Carcinogen: 7,12-DIMETHYLBENZ[A]ANTHRACENE (57-97-6), Dose [Inhibitor]: 10 MG/KG BW DAILY BETWEEN 45 AND 59 D OF AGE (STUDY DURATION: 1 YR), Route [Inhibitor]: INTRAGASTRIC (GASTRIC) IN HYDROXYETHYLCELLULOSE SODIUM, Species: RAT, Strain/Sex: SPRAGUE-DAWLEY/FEMALE, Target Tissue: Type of Lesion: MAMMARY: ADENOCARCINOMA, Dose [Carcinogen]: 75 MG/KG BW IN SESAME OIL (ONCE) AT 60 D OF AGE","75%, 85%"
same,outcome,"Carcinogen: 7,12-DIMETHYLBENZ[A]ANTHRACENE (57-97-6), Dose [Inhibitor]: 10 MG/KG BW DAILY FOR 6 MO AFTER CARCINOGEN ADMINISTRATION, Route [Inhibitor]: INTRAGASTRIC (GASTRIC), Species: RAT, Strain/Sex: SPRAGUE-DAWLEY/FEMALE, Target Tissue: Type of Lesion: MAMMARY: ADENOCARCINOMA, Dose [Carcinogen]: 75 MG/KG BW AT 55 D OF AGE (STUDY DURATION: 1 YR)","75%, 58%"
OC1C(O)C(O)C(O)C(O)C1O (centres undefined),"tumour outcome (control, treated, inhibition, significance)","Carcinogen: 7,12-DIMETHYLBENZ[A]ANTHRACENE, 57-97-6, Dose [Inhibitor]: 0, 15 MILLIMOLAR IN DRINKING WATER FOR 47 WK BEGINNING 2 WK PRIOR TO CARCINOGEN DOSE (STUDY DURATION: 47 WK), Route [Inhibitor]: ORAL, Species: RAT, Strain/Sex: SPRAGUE-DAWLEY/FEMALE, Target Tissue: Type of Lesion: MAMMARY GLAND: TUMOR, Dose [Carcinogen]: 5 MG IN 1 ML CORN OIL ONCE, Promoter: NONE USED","37/40 (93%), 30/40 (75%), 19%, p<0.05"
COc1ccc(-c2cc(=S)ss2)cc1,"tumour outcome (control, treated, inhibition, significance)","Carcinogen: 7,12-DIMETHYLBENZ[A]ANTHRACENE, 57-97-6, Dose [Inhibitor]: 0, 200 PPM IN DIET FOR DURATION OF STUDY BEGINNING 1 WK PRIOR TO CARCINOGEN DOSE (STUDY DURATION: 107 D), Route [Inhibitor]: ORAL, Species: RAT, Strain/Sex: SPRAGUE-DAWLEY/FEMALE, Target Tissue: Type of Lesion: MAMMARY GLAND: ADENOCARCINOMA, Dose [Carcinogen]: 12 MG ONCE, Promoter: NONE USED","80%, 75%, 6%, not significant"
same,"tumour outcome (control, treated, inhibition, significance)","Carcinogen: 7,12-DIMETHYLBENZ[A]ANTHRACENE, 57-97-6, Dose [Inhibitor]: 0, 400 PPM IN DIET FOR DURATION OF STUDY BEGINNING 1 WK PRIOR TO CARCINOGEN DOSE (STUDY DURATION: 107 D), Route [Inhibitor]: ORAL, Species: RAT, Strain/Sex: SPRAGUE-DAWLEY/FEMALE, Target Tissue: Type of Lesion: MAMMARY GLAND: ADENOCARCINOMA, Dose [Carcinogen]: 12 MG ONCE, Promoter: NONE USED","80%, 85%, -6%, not significant"
same,"tumour outcome (control, treated, inhibition, significance)","Carcinogen: AZOXYMETHANE, 25843-45-2, Dose [Inhibitor]: 0, 100 PPM IN DIET BEGINNING 2 WK PRIOR TO CARCINOGEN TREATMENT AND CONTINUING FOR DURATION OF STUDY (STUDY DURATION: 56, Route [Inhibitor]: ORAL, Species: RAT, Strain/Sex: F344/MALE, Target Tissue: Type of Lesion: COLON: INVASIVE ADENOCARCINOMA, Dose [Carcinogen]: 15 MG/KG 1/WK FOR 2 WK, Promoter: NONE USED","34%, 11%, 68%, p<0.05"
same,"tumour outcome (control, treated, inhibition, significance)","Carcinogen: AZOXYMETHANE, 25843-45-2, Dose [Inhibitor]: 0, 100 PPM IN DIET BEGINNING 2 WK PRIOR TO CARCINOGEN TREATMENT AND CONTINUING FOR DURATION OF STUDY (STUDY DURATION: 56, Route [Inhibitor]: ORAL, Species: RAT, Strain/Sex: F344/MALE, Target Tissue: Type of Lesion: COLON: NONINVASIVE ADENOCARCINOMA, Dose [Carcinogen]: 15 MG/KG 1/WK FOR 2 WK, Promoter: NONE USED","53%, 47%, 11%, not significant"
same,"tumour outcome (control, treated, inhibition, significance)","Carcinogen: AZOXYMETHANE, 25843-45-2, Dose [Inhibitor]: 0, 200 PPM IN DIET BEGINNING 2 WK PRIOR TO CARCINOGEN TREATMENT AND CONTINUING FOR DURATION OF STUDY (STUDY DURATION: 56, Route [Inhibitor]: ORAL, Species: RAT, Strain/Sex: F344/MALE, Target Tissue: Type of Lesion: COLON: INVASIVE ADENOCARCINOMA, Dose [Carcinogen]: 15 MG/KG 1/WK FOR 2 WK, Promoter: NONE USED","34%, 8%, 76%, p<0.01"
same,"tumour outcome (control, treated, inhibition, significance)","Carcinogen: AZOXYMETHANE, 25843-45-2, Dose [Inhibitor]: 0, 200 PPM IN DIET BEGINNING 2 WK PRIOR TO CARCINOGEN TREATMENT AND CONTINUING FOR DURATION OF STUDY (STUDY DURATION: 56, Route [Inhibitor]: ORAL, Species: RAT, Strain/Sex: F344/MALE, Target Tissue: Type of Lesion: COLON: NONINVASIVE ADENOCARCINOMA, Dose [Carcinogen]: 15 MG/KG 1/WK FOR 2 WK, Promoter: NONE USED","53%, 30%, 43%, p<0.05"
